Earlier results on one compound are cited in US8895039B2, “Cosmetic preparations containing hydrocarbons” (Cognis IP Management GmbH, priority 2007, dated 2014).

Each structure is given as a SMILES string.

For the series the following is noted: at 20° C.

As to `CCCCCCCCC` [Nonane], the Viscosity was 0.711 cP.
